Results taken from paper PMC12016938, “A small molecule PKCε inhibitor reduces hyperalgesia induced by paclitaxel or opioid withdrawal” (JCI Insight, 2025).
Where “and” joins values, the source holds several entries; their conditions need not be identical. Identical values can stand only once.

Test system: self-administration (addictive potential)
Test: I.v. self-administration of CP612, between-session progressive ratio and demand curve
Description: We tested the addictive potential of CP612 by examining the extent to which rats are willing to work to obtain CP612. Rats were initially trained to self-administer either saline, morphine (500 μg/kg/i.v. infusion), or 1 of 3 different doses of CP612 (75, 150, or 300 μg/kg/i.v. infusion) for 4 days at fixed ratio 1 (FR1, where 1 nose poke delivers 1 infusion).
During the second phase, the ratio to obtain an infusion increased geometrically every other day (FR1, FR3, FR6, FR12, FR24, FR48, and FR96).
Data (number of self-infusions) were also fitted in an economic-demand curve, which provides an estimate of the motivation to obtain drugs and their addictive potential ([20]). We measured elasticity (α), which is the relative change in consumption as a function of price (i.e., ratio of nose pokes required to obtain an infusion). Behavior is considered “inelastic” when consumption is insensitive to price and “elastic” when consumption is sensitive to price. We also measured Pmax, which is the price at which intake switches from inelastic to elastic. […] (Figure 8B).
Rats not immediately anesthetized were eliminated from the study.
Following this initial acquisition phase at FR1, the ratio to obtain the drug was increased geometrically every other day: FR3 (3 nose pokes are required to obtain 1 infusion of morphine), FR6, FR12, FR24, FR48, and FR96. This allows for analysis of drug consumption as a function of “price” using demand curves for behavioral economics, which can estimate the motivation to obtain drugs and their “addictive potential” ([20]). For this, data from each rat were fitted to the equation log Q = log Q0 + k (e ^–α(Q0 ^C) – 1), where Q represents consumption (number of self-infusions), and Q0 represents the level of consumption at the lowest price. C represents price for the drug (i.e., the ratio), and k is set to a constant accounting for the estimated range of consumption in logarithmic units (k = 4 in these studies). The symbol α is the relative change in consumption across changes in price (ratio). Behavior is considered “inelastic” when consumption is insensitive to price (i.e., the curve is flat, and consumption is maintained despite increases in price), and it switches to “elastic” when consumption is sensitive to price (i.e., when the curve is steep and consumption declines with increases in price). […] We also compared groups for their average intake in the consumption-price curves by measuring α (elasticity) and Pmax.

`N[C@H](CNC(=O)C1(c2ccc(Cl)cc2)CCCC1)c1ccc(C(=O)Nc2ccncc2)cc1` [CP612] was tested, and the “AVG Latency (FR12)” value (CP612-Mid, individual rat) was 0.5 and 1.1 and 1.0 and 3.5 and 4.2, the “AVG Latency (FR24)” value (CP612-Mid, individual rat) was 0.3 and 1.4 and 1.0 and 1.5 and the “AVG Latency (FR48)” value (CP612-Mid, individual rat) was 0.112 and 1.3 and 0.7 and 0.539 and 2.5. The “AVG Latency (FR96)” value (CP612-Mid, individual rat) was 2.0 and 0.8 and 0.6 and 2.4, the “D1 Latency (FR1)” value (CP612-Mid, individual rat) was 3.8 and 0.15 and 0.8 and 0.215 and the “D1 Latency (FR3)” value (CP612-Mid, individual rat) was 0.137 and 0.557 and 0.083 and 0.1 and 1.4. The “D1 Latency (FR6)” value (CP612-Mid, individual rat) was 0.9 and 1.2 and 1.4 and 3.2 and 4.8, the “D1 Latency (FR12)” value (CP612-Mid, individual rat) was 0.255 and 1.6 and 1.7 and 5.8 and the “D1 Latency (FR24)” value (CP612-Mid, individual rat) was 0.108 and 2.3 and 0.4 and 0.282 and 2.0. The “D1 Latency (FR48)” value (CP612-Mid, individual rat) was 0.123 and 1.4 and 0.337 and 0.447 and 2.9, the “D1 Latency (FR96)” value (CP612-Mid, individual rat) was 2.4 and 0.76 and 0.8 and 2.5 and 0.4 and the “D2 Latency (FR1)” value (CP612-Mid, individual rat) was 0.5 and 0.215 and 0.6 and 0.237 and 2.1. The “D2 Latency (FR3)” value (CP612-Mid, individual rat) was 1.4 and 0.375 and 2.2 and 0.065 and 0.125, the “D2 Latency (FR6)” value (CP612-Mid, individual rat) was 0.335 and 0.737 and 0.17 and 2.8 and 5.1 and the “D2 Latency (FR12)” value (CP612-Mid, individual rat) was 0.7 and 0.6 and 0.4 and 5.2 and 2.6. For the same compound, the “D2 Latency (FR24)” value (CP612-Mid, individual rat) was 0.5 and 0.432 and 0.168 and 1.7 and 1.0, the “D2 Latency (FR48)” value (CP612-Mid, individual rat) was 0.1 and 1.2 and 1.0 and 0.632 and 2.0 and the “D2 Latency (FR96)” value (CP612-Mid, individual rat) was 1.7 and 0.8 and 0.435 and 2.3. The “D3 Latency (FR1)” value (CP612-Mid, individual rat) was 0.237 and 0.127 and 0.132 and 0.128 and 0.347, the “D4 Latency (FR1)” value (CP612-Mid, individual rat) was 0.8 and 1.4 and 0.4 and 3.8 and the “last Latency (FR1)” value (CP612-Mid, individual rat) was 0.158 and 0.458 and 0.11 and 0.378 and 3.0. For the same compound, the “last-1 Latency (FR1)” value (CP612-Mid, individual rat) was 0.8 and 1.4 and 0.4 and 3.8, the “last-2 Latency (FR1)” value (CP612-Mid, individual rat) was 0.237 and 0.127 and 0.132 and 0.128 and 0.347 and the “last-3 Latency (FR1)” value (CP612-Mid, individual rat) was 0.237 and 0.215 and 0.6 and 0.128 and 0.347. The “AVG Latency (FR1_D1 to D4)” value (CP612-Mid, individual rats) was 1.8 and 5.8 and 0.9, the “AVG Latency (FR1_Last 2 FR1 days)” value (CP612-Mid, individual rats) was 0.456 and 1.8 and 0.373 and the “AVG Latency (FR1_Last 4 FR1 days)” value (CP612-Mid, individual rats) was 0.455 and 2.3 and 0.265. The “AVG Latency (FR3)” value (CP612-Mid, individual rats) was 0.7 and 0.9 and 0.6, the “AVG Latency (FR6)” value (CP612-Mid, individual rats) was 1.0 and 2.4 and 0.144 and the “AVG Latency (FR12)” value (CP612-Mid, individual rats) was 0.657 and 1.0 and 0.8. For the same compound, the “AVG Latency (FR24)” value (CP612-Mid, individual rats) was 0.8 and 0.757 and 0.6, the “AVG Latency (FR48)” value (CP612-Mid, individual rats) was 2.5 and 6.0 and 0.7 and the “AVG Latency (FR96)” value (CP612-Mid, individual rats) was 1.0 and 1.3. For the same compound, the “D1 Latency (FR1)” value (CP612-Mid, individual rats) was 5.7 and 14.9 and 2.9, the “D1 Latency (FR3)” value (CP612-Mid, individual rats) was 1.0 and 0.8 and 0.465 and the “D1 Latency (FR6)” value (CP612-Mid, individual rats) was 1.7 and 4.2 and 0.257. For the same compound, the “D1 Latency (FR12)” value (CP612-Mid, individual rats) was 0.9 and 1.9 and 1.1, the “D1 Latency (FR24)” value (CP612-Mid, individual rats) was 1.1 and 0.9 and 0.442 and the “D1 Latency (FR48)” value (CP612-Mid, individual rats) was 1.5 and 0.8 and 1.2. The “D1 Latency (FR96)” value (CP612-Mid, individual rats) was 1.1 and 0.335 and 0.8, the “D2 Latency (FR1)” value (CP612-Mid, individual rats) was 0.7 and 3.0 and 0.022 and the “D2 Latency (FR3)” value (CP612-Mid, individual rats) was 0.4 and 1.0 and 0.738. The “D2 Latency (FR6)” value (CP612-Mid, individual rats) was 0.427 and 0.638 and 0.03, the “D2 Latency (FR12)” value (CP612-Mid, individual rats) was 0.377 and 0.168 and 0.5 and the “D2 Latency (FR24)” value (CP612-Mid, individual rats) was 0.5 and 0.6 and 0.753. The “D2 Latency (FR48)” value (CP612-Mid, individual rats) was 3.5 and 11.3 and 0.2, the “D2 Latency (FR96)” value (CP612-Mid, individual rats) was 0.8 and 2.3 and 1.1 and the “D3 Latency (FR1)” value (CP612-Mid, individual rats) was 0.6 and 4.4 and 0.157. The “D4 Latency (FR1)” value (CP612-Mid, individual rats) was 0.3 and 1.0 and 0.57, the “last Latency (FR1)” value (CP612-Mid, individual rats) was 0.2 and 0.6 and 0.177 and the “last-1 Latency (FR1)” value (CP612-Mid, individual rats) was 0.7 and 3.1 and 0.57. The “last-2 Latency (FR1)” value (CP612-Mid, individual rats) was 0.3 and 1.0 and 0.157, the “last-3 Latency (FR1)” value (CP612-Mid, individual rats) was 0.6 and 4.4 and 0.157 and the “AVG Inf (FR96)” value (rat, in vivo) was 0.0. For the same compound, the Addictive potential (rat, in vivo) was “highly unlikely to be addictive”, the “D1 Inf (FR96)” value (rat, in vivo) was 0 and the “D2 Inf (FR96)” value (rat, in vivo) was 0. The “AVG Inf (FR96)” value (rat, in vivo, 2 h) was 0.0, the “D1 Inf (FR96)” value (rat, in vivo, 2 h) was 0 and the “D2 Inf (FR96)” value (rat, in vivo, 2 h) was 0. For the same compound, the “D1 Inf (FR48)” value (rat, in vivo, 1 day at FR48) was 0, the “D1 Inf (FR96)” value (rat, in vivo, 1 day at FR96) was 0 and the “D2 Inf (FR48)” value (rat, in vivo, 2 day at FR48) was 0. For the same compound, the “D2 Inf (FR96)” value (rat, in vivo, 2 day at FR96) was 0.
